Converted amounts (≈) assume the structure as drawn. Where two headings read alike, the source gives them in different places.
Tests used:
[1] = Rat screening IV/PO pharmacokinetics; assay type: in vivo; details: male, plasma, mean residence time, IV/PO procedure
Experimental: Plasma pharmacokinetic parameters for clearance, volume of distribution, half-life, mean residence time (MRT) and oral bioavailability (% F)—were determined in rats from oral administration and IV administration studies. 4 male rats, typically weighing 225-260 gram, were fasted overnight prior to dosing. Compounds were prepared for oral and IV dosing by addition to a vehicle, depending on the dose used. For a typical preparation, 1 mg per mL (IV) or 1.5 mg per mL (oral) of test compound was added to vehicle comprised of 20% dimethyl sulfoxide (DMSO), 60% polyethylene glycol 400 (PEG400) and 20% water. IV formulation was administered to 2 rats via pre-cannulated jugular vein, and oral dosing was administered to 2 rats via oral gavage. Blood was collected by pre-cannulated artery, typically at predose, 2 min, 8 min, 15 min, 30 min, and 1, 2, 4, 6, and 8 hr postdose for IV, and at predose, 15 min, 30 min, and 1, 2, 4, 6, 8 hr for oral dosing. Samples were collected in K2EDTA tubes, stored on ice, and centrifuged. Plasma was transferred to a micro titer plate and stored at −70° C. until analysis. Plasma samples were extracted using protein precipitation and analyzed by liquid chromatography separation followed by mass spec detection (LCMS/MS), using a standard curve for each compound. Plasma pharmacokinetic parameters were calculated for IV and oral dosing data by non-compartmental methods. Oral bioavailability was determined as the ratio of the dose-normalized plasma area under the curve (AUC) following oral dosing vs. IV dosing.

human Factor XIa = human Factor XIa (Homo sapiens (Human), UniProt P03951); experiment: Factor XIa assay; assay type: biochemical; details: human Factor XIa 0.04 nM, GPR-AFC substrate, 25° C.; read-out: FXIa IC50
Experimental: The effectiveness of a compound of the present invention as an inhibitor of Coagulation Factor XIa can be determined using a relevant purified serine protease, and an appropriate synthetic substrate. The rate of hydrolysis of the chromogenic or fluorogenic substrate by the relevant serine protease was measured both in the absence and presence of compounds of the present invention. Assays were conducted at room temperature or at 37° C. […] A decrease in the rate of fluorescence change in the presence of inhibitor is indicative of enzyme inhibition. Such methods are known to one skilled in the art. The results of this assay are expressed as the half-maximal inhibitory concentrations (IC50), or the inhibitory constant, Ki.
Compounds were pre-incubated for 30 minutes at 25° C. with human (0.04 nM) Factor XIa in 50 mM HEPES buffer with 150 mM sodium chloride, 5 mM calcium chloride, 0.1% PEG 8000, pH 7.4. Factor XIa enzymatic activity was determined by addition of the substrate glycine-proline-arginine-7-amido-4-trifluoromethylcoumarin (GPR-AFC) and measurement of the fluorescence at 400/505 nm after a 60 minute incubation at 25° C. The % inhibition for each data point was calculated from the data and analyzed using the log (inhibitor) vs. response four parameters equation to determine the half-maximal inhibitory concentrations (IC50). The IC50 were, converted to equilibrium inhibitory constants (Ki) using the Cheng-Prusoff equation.

[2] = biological target: Human Norepinephrine Transporter (NET) (Homo sapiens (Human), UniProt P23975); experiment: Norepinephrine Transporter functional antagonist uptake assay; assay type: cell-based; details: [3H]Norepinephrine uptake, MDCK cells expressing human recombinant NET
Experimental: Human Norepinephrine Transporter (NET) Functional Antagonist Uptake Assay was carried out at Panlabs Cerep (assay #302100). Human recombinant norepinephrine transporter expressed in MDCK cells were plated overnight. Test compound and/or vehicle was pre-incubated with cells (2×10E5/ml) in modified Tris-HEPES buffer pH 7.1 for 20 minutes at 25° C. and 25 nM [3H]Norepinephrine was then added for an additional 15 minute incubation period. A lysate was obtained from solubilized cells and counted to determine [3H]Norepinephrine uptake. Reduction of [3H]Norepinephrine uptake by 50 percent or more (≥50%) relative to 10 μM desipramine indicates significant inhibitory activity. Compounds are screened at 10, 3, 1, 0.3, 0.1, 0.03, 0.01 and 0.003 μM. These same concentrations are concurrently applied to a separate group of untreated cells and evaluated for possible compound-induced cytotoxicity only if significant inhibition of uptake is observed. IC50 values were determined by a non-linear, least squares regression analysis using MathIQ™ (IDBusiness Solutions Ltd., UK).

[3] = High-throughput (HT) solubility determination; assay type: physicochemical; details: kinetic from dmso stock
Experimental: The chromatographic system consists of an Agilent 1290 UPLC/DAD system and ChemStation software, both from Agilent Technologies, USA. The separations are carried out on a Supelco Ascentis Express C18, 30 mm×3.0 mm I.D., 2.7 μm HPLC column. The mobile phase consists of Potassium phosphate buffered at pH 7 (mobile phase A) and acetonitrile (mobile phase B). The column oven temperature is set to 30° C. and the UPLC analysis consists of a gradient. The injection volume is 2 μL and the spectrophotometric detection is set to 215 and 238 nm.
A 10 mM stock solution of the compound in DMSO is supplied for analysis. 2.5 μL of stock solution (10 mM) was diluted into 247.5 μL of organic co-solvents (10% MeCN/80% MeOH/10% DMSO, v/v/v) to create a standard solution of 100 μM. To create the solubility solutions, 4.1 μL of 10 mM DMSO stock solution was diluted into […] (PBS) (pH 7) solution. A second 4.1 μL aliquot of 10 mM DMSO stock solution was added to 196 μL of PBS (pH 2) solution. A third 4.1 μL aliquot of 10 mM DMSO stock solution was added to 196 μL of FaSSIF (pH 6.5) solution. Each solubility solution was sealed and shaken for 24 hours at 25° C. Filtered the equilibrated solubility solutions by centrifugation using a filter (0.45 μm, polypropylene). Placed 50 μL each of the 100 μM standard solution and the filtered equilibrated solubility solutions into a 384 well plate, and the plate was subsequently heat sealed.
Analyzed each standard and solubility solution by UPLC/DAD. The solubility value was calculated by the following equation: Solubility=(Peak area of sample/Peak area of standard)(Standard concentration)

[4] = FaSSIF pH 6.5, 24 hours at 25° C., read-out: pH 6.5 (FaSSIF) solubility
[5] = phosphate buffered saline (PBS) pH 2, aqueous buffer, PBS pH 2, 24 hours at 25° C., read-out: pH 2 solubility

Sequence of human Factor XIa (P03951 388-625): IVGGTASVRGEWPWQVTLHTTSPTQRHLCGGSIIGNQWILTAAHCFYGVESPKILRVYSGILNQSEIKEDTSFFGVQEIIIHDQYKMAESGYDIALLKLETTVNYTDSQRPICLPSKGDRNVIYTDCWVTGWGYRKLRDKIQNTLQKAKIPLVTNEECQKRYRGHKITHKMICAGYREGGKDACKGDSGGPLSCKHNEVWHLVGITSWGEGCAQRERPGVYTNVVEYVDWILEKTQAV
Sequence of human Factor XIa (P03951 19-387 partner): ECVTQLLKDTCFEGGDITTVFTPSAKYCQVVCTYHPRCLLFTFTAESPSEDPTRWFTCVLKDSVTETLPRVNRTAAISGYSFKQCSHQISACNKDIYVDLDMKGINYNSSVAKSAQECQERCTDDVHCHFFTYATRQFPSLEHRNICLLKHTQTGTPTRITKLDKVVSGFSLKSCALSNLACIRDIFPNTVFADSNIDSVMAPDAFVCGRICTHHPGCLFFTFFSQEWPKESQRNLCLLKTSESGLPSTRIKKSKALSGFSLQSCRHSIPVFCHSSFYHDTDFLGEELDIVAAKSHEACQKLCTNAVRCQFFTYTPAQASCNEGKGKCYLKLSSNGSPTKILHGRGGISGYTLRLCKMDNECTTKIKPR
Sequence of Human Norepinephrine Transporter (NET) (P23975 whole entry): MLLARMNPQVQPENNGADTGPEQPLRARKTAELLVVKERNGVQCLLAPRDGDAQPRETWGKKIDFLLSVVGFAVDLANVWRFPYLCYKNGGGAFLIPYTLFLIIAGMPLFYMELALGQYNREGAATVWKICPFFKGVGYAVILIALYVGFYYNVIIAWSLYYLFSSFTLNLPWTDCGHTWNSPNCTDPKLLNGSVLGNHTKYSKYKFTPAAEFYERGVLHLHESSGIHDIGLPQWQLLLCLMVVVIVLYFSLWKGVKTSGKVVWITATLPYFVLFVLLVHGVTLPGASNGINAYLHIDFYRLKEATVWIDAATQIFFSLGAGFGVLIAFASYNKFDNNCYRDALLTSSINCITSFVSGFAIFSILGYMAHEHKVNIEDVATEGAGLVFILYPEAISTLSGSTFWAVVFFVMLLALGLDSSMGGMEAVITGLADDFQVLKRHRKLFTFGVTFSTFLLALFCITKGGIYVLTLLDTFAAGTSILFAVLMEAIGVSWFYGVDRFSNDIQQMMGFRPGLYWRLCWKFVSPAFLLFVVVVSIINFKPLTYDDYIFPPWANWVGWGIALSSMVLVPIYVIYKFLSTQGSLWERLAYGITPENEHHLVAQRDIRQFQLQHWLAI

Compound | MRT [1] | IC50 (human Factor XIa) | IC50 [2] | solubility kinetic at 24 h [3, 4] | solubility kinetic at 24 h [3, 5]
COC(=O)Nc1ccc2c(c1)NC(=O)C(C)(C)CCC[C@H](c1ccc(-c3cc(F)ccc3-n3cc(C(F)(F)F)cn3)c[n+]1[O-])c1nc-2c(C)[nH]1 [Example 2, (R.Z)-5-(5-fluoro-2-(4-(trifluoromethyl)-1H-pyrazol-1-yl)phenyl)-2-(2^4-((methoxycarbonyl)amino)-1^5,5,5-trimethyl-4-oxo-1^1H-3-aza-1(4,2)-imidazola-2(1,2)-benzenacyclononaphane-9-yl)pyridine 1-oxide] | 5.7 h | 2.9 nM | > 10000 nM | 53 µM (≈ 36.7 µg/mL) | 209 µM (≈ 145 µg/mL)
COC(=O)Nc1ccc2c(c1)NC(=O)C(C)(C)CCC[C@H](c1ccc(-c3cc(Cl)ccc3-n3cc(C(F)(F)F)cn3)c[n+]1[O-])c1nc-2c(C)[nH]1 [Example 3] | 11 h | 0.89 nM | > 10000 nM | 27 µM (≈ 19.1 µg/mL) | 159 µM (≈ 113 µg/mL)
COC(=O)Nc1ccc2c(c1)NC(=O)C(C)(C)CCC[C@H](c1ccc(-c3cc(Cl)ccc3-n3cc(C(F)F)cn3)c[n+]1[O-])c1nc-2c(C)[nH]1 [Example 4, (R,Z)-5-(5-chloro-2-(4-(difluoromethyl)-1H-pyrazol-1-yl)phenyl)-2-(2^4-((methoxycarbonyl)amino)-1^5,5,5-trimethyl-4-oxo-1^1H-3-aza-1(4,2)-imidazola-2(1,2)-benzenacyclononaphane-9-yl)pyridine 1-oxide] | 2.7 h | 0.9 nM | 6500 nM | 44 µM (≈ 30.4 µg/mL) | 166 µM (≈ 115 µg/mL)
COC(=O)Nc1ccc2c(c1)NC(=O)C(C)(C)CCC[C@H](c1ccc(-c3c(-n4cc(C(F)(F)F)cn4)ccc(F)c3F)c[n+]1[O-])c1nc-2c(C)[nH]1 [Example 1, (R,Z)-5-(2,3-difluoro-6-(4-(trifluoromethyl)-1H-pyrazol-1-yl)phenyl)-2-(2^4-((methoxycarbonyl)amino)-1^5,5,5-trimethyl-4-oxo-1^1H-3-aza-1(4,2)-imidazola-2 (1,2)-benzenacyclononaphane-9-yl)pyridine 1-oxide] | 5.8 h | 1.5 nM | > 10000 nM | 36 µM (≈ 25.5 µg/mL) | > 200 µM

More lines, now with the values ahead:

MRT [1] | IC50 (human Factor XIa) | IC50 [2] | solubility kinetic at 24 h [3, 4] | solubility kinetic at 24 h [3, 5] | Compound
4.5 h | 2 nM | > 10000 nM | 50 µM (≈ 34.6 µg/mL) | 146 µM (≈ 101 µg/mL) | COC(=O)Nc1ccc2c(c1)NC(=O)C(C)(C)CCC[C@H](c1ccc(-c3cc(F)ccc3-c3cnn(C(F)(F)F)c3)c[n+]1[O-])c1nc-2c(C)[nH]1 [Example 5, (R,Z)-5-(5-fluoro-2-(1-(trifluoromethyl)-1H-pyrazol-4-yl)phenyl)-2-(2^4-((methoxycarbonyl)amino)-1^5,5,5-trimethyl-4-oxo-1^1H-3-aza-1(4,2)-imidazola-2(1,2)-benzenacyclononaphane-9-yl)pyridine 1-oxide]
5.6 h | 4.4 nM | 180 nM | 55 µM (≈ 35.3 µg/mL) | 143 µM (≈ 91.7 µg/mL) | COC(=O)Nc1ccc2c(c1)NC(=O)C(C)(C)CCC[C@H](c1ccc(-c3cc(Cl)cnc3OC(F)F)c[n+]1[O-])c1nc-2c(C)[nH]1 [Example 6, (R,Z)-5′-chloro-2′-(difluoromethoxy)-6-(2^4-((methoxycarbonyl)amino)-1^5,5,5-trimethyl-4-oxo-1^1H-3-aza-1(4,2)-imidazola-2(1,2)-benzenacyclononaphane-9-yl)-[3,3′-bipyridine]1-oxide]

Source: patent US12344616B2, “Factor XIa inhibitors” (Merck Sharp & Dohme LLC, priority 2018, dated 2025)
